The source made the active and inactive calls. The calls are words filed in the database; no cut-off is given here.
Legend:
[1] = tested on: Botrytis cinerea; assay: Antifungal activity against Botryotinia fuckeliana assessed as radial mycelia growth inhibition at 25 degC at 1 to 100 umol relative to control (crop protection Lilium longiflorum Thunb.); type: functional, organism-based
[2] = tested on: Botrytis cinerea; assay: Antifungal activity against Botryotinia fuckeliana assessed as radial mycelia growth inhibition at 25 degC at 100 umol relative to control (crop protection Lilium longiflorum Thunb.); type: functional

Compound | growth inhibition (GI) [1] | growth inhibition (GI) [2] [%]
C[C@@H]1CC[C@@]2(NC1)O[C@H]1C[C@H]3[C@@H]4CC=C5C[C@@H](O[C@@H]6O[C@H](CO)[C@@H](O[C@@H]7O[C@H](CO)[C@@H](O)[C@H](O)[C@H]7O)[C@H](O)[C@H]6O[C@@H]6O[C@@H](C)[C@H](O)[C@@H](O)[C@H]6O)CC[C@]5(C)[C@H]4CC[C@]3(C)[C@H]1[C@@H]2C | Active | 
C[C@H](CC[C@@]1(O)O[C@H]2C[C@H]3[C@@H]4CC=C5C[C@@H](O[C@@H]6O[C@H](CO)[C@@H](O)[C@H](O[C@@H]7OC[C@H](O)[C@H](O)[C@H]7O)[C@H]6O[C@@H]6O[C@@H](C)[C@H](O)[C@@H](O)[C@H]6O)CC[C@]5(C)[C@H]4CC[C@]3(C)[C@H]2[C@@H]1C)CO[C@@H]1O[C@H](CO)[C@@H](O)[C@H](O)[C@H]1O |  | 25
C[C@H](CC[C@@]1(O)O[C@H]2C[C@H]3[C@@H]4CC=C5C[C@@H](O[C@@H]6O[C@H](CO)[C@@H](O)[C@H](O[C@@H]7OC[C@H](O)[C@@H](O)[C@@H]7O)[C@H]6O[C@@H]6O[C@@H](C)[C@H](O)[C@@H](O)[C@H]6O)CC[C@]5(C)[C@H]4CC[C@]3(C)[C@H]2[C@@H]1C)CO[C@@H]1O[C@H](CO)[C@@H](O)[C@H](O)[C@H]1O |  | 25
C[C@H](CC[C@@]1(O)O[C@H]2C[C@H]3[C@@H]4CC=C5C[C@@H](O[C@@H]6O[C@H](CO)[C@@H](O[C@@H]7O[C@H](CO)[C@@H](O)[C@H](O)[C@H]7O)[C@H](O)[C@H]6O[C@@H]6O[C@@H](C)[C@H](O)[C@@H](O)[C@H]6O)CC[C@]5(C)[C@H]4CC[C@]3(C)[C@H]2[C@@H]1C)CO[C@@H]1O[C@H](CO)[C@@H](O)[C@H](O)[C@H]1O |  | 25
CC(=O)OC[C@H]1O[C@@H](O[C@H]2[C@H](O)[C@@H](O[C@@H]3O[C@@H](C)[C@H](O)[C@@H](O)[C@H]3O)[C@H](O[C@H]3CC[C@@]4(C)C(=CC[C@H]5[C@@H]6C[C@@H]7O[C@]8(CC[C@@H](C)CN8)[C@@H](C)[C@@H]7[C@@]6(C)CC[C@@H]54)C3)O[C@@H]2CO)[C@H](O)[C@@H](O)[C@@H]1O |  | 49

From ChEMBL document CHEMBL3045412, “Antifungal activity and fungal metabolism of steroidal glycosides of Easter lily (Lilium longiflorum Thunb.) by the plant pathogenic fungus, Botrytis cinerea” (2011)
